Laboratory results as given in patent publication US20230157952A1, “METHOD FOR IMPROVING THE STABILITY OF A PHARMACEUTICAL COMPOSITION COMPRISING A HIGH PENETRATION DRUG, AND THE PHARMACEUTICAL COMPOSITION OBTAINED THEREFROM” (Techfields Inc., priority 2020, published 2023).

Test: Effect of temperature (and pH) on the stability of the solution (purity)
Format: physicochemical
Conditions: 7% solution in water

Q: What does the source list for `CCN(CC)CCOC(=O)Cc1ccc(C(=O)c2ccc(C)cc2)n1C.Cl`?
A: Purity(%) at day 0 (pH 1.0, day 0): 97.4 ± 0.4%; Purity(%) at day 21 (5° C.) (pH 1.0, day 21, 5° C.): 90.3 ± 0.3%; Purity(%) at day 21 (25° C.) (pH 1.0, day 21, 25° C.): 65.5 ± 0.3%; Purity(%) at day 21 (40° C.) (pH 1.0, day 21, 40° C.): 9.4 ± 0.3%; Purity (%) at day 21 (60° C.) (pH 1.0, day 21, 60° C.): 0%; Purity(%) at day 0 (pH 2.0, day 0): 97.6 ± 0.3%; Purity(%) at day 21 (5° C.) (pH 2.0, day 21, 5° C.): 93.5 ± 0.3%; Purity(%) at day 21 (25° C.) (pH 2.0, day 21, 25° C.): 78.1 ± 0.3%; Purity(%) at day 21 (40° C.) (pH 2.0, day 21, 40° C.): 20.6 ± 0.3%; Purity (%) at day 21 (60° C.) (pH 2.0, day 21, 60° C.): 0%; Purity(%) at day 0 (pH 3.0, day 0): 97.8 ± 0.2%; Purity(%) at day 21 (5° C.) (pH 3.0, day 21, 5° C.): 95.3 ± 0.3%; Purity(%) at day 21 (25° C.) (pH 3.0, day 21, 25° C.): 91.2 ± 0.2%; Purity(%) at day 21 (40° C.) (pH 3.0, day 21, 40° C.): 41.7 ± 0.2%; Purity (%) at day 21 (60° C.) (pH 3.0, day 21, 60° C.): 0%; Purity(%) at day 0 (pH 3.7, day 0): 97.9 ± 0.2%; Purity(%) at day 21 (5° C.) (pH 3.7, day 21, 5° C.): 96.4 ± 0.2%; Purity(%) at day 21 (25° C.) (pH 3.7, day 21, 25° C.): 95.6 ± 0.2%; Purity(%) at day 21 (40° C.) (pH 3.7, day 21, 40° C.): 56.6 ± 0.2%; Purity (%) at day 21 (60° C.) (pH 3.7, day 21, 60° C.): 11.5 ± 0.3%; Purity(%) at day 0 (pH 4.0, day 0): 98.1 ± 0.1%; Purity(%) at day 21 (5° C.) (pH 4.0, day 21, 5° C.): 96.8 ± 0.1%; Purity(%) at day 21 (25° C.) (pH 4.0, day 21, 25° C.): 95.7 ± 0.2%; Purity(%) at day 21 (40° C.) (pH 4.0, day 21, 40° C.): 58.3 ± 0.2%; Purity (%) at day 21 (60° C.) (pH 4.0, day 21, 60° C.): 23.0 ± 0.3%; Purity(%) at day 0 (pH 4.3, day 0): 98.1 ± 0.2%; Purity(%) at day 21 (5° C.) (pH 4.3, day 21, 5° C.): 96.9 ± 0.1%; Purity(%) at day 21 (25° C.) (pH 4.3, day 21, 25° C.): 95.4 ± 0.1%; Purity(%) at day 21 (40° C.) (pH 4.3, day 21, 40° C.): 60.1 ± 0.1%; Purity (%) at day 21 (60° C.) (pH 4.3, day 21, 60° C.): 25.8 ± 0.2%; Purity(%) at day 0 (pH 4.6, day 0): 97.9 ± 0.1%; Purity(%) at day 21 (5° C.) (pH 4.6, day 21, 5° C.): 96.3 ± 0.2%; Purity(%) at day 21 (25° C.) (pH 4.6, day 21, 25° C.): 94.9 ± 0.2%; Purity(%) at day 21 (40° C.) (pH 4.6, day 21, 40° C.): 55.3 ± 0.2%; Purity (%) at day 21 (60° C.) (pH 4.6, day 21, 60° C.): 13.5 ± 0.3%; Purity(%) at day 0 (pH 5.0, day 0): 97.8 ± 0.2%; Purity(%) at day 21 (5° C.) (pH 5.0, day 21, 5° C.): 96.1 ± 0.2%; Purity(%) at day 21 (25° C.) (pH 5.0, day 21, 25° C.): 92.1 ± 0.3%; Purity(%) at day 21 (40° C.) (pH 5.0, day 21, 40° C.): 37.8 ± 0.3%; Purity (%) at day 21 (60° C.) (pH 5.0, day 21, 60° C.): 1.7 ± 0.3%; Purity(%) at day 0 (pH 6.0, day 0): 97.6 ± 0.3%; Purity(%) at day 21 (5° C.) (pH 6.0, day 21, 5° C.): 94.4 ± 0.2%; Purity(%) at day 21 (25° C.) (pH 6.0, day 21, 25° C.): 79.5 ± 0.3%; Purity(%) at day 21 (40° C.) (pH 6.0, day 21, 40° C.): 19.5 ± 0.2%; Purity (%) at day 21 (60° C.) (pH 6.0, day 21, 60° C.): 0%; Purity(%) at day 0 (pH 7.0, day 0): 97.4 ± 0.3%; Purity(%) at day 21 (5° C.) (pH 7.0, day 21, 5° C.): 90.0 ± 0.3%; Purity(%) at day 21 (25° C.) (pH 7.0, day 21, 25° C.): 59.7 ± 0.3%; Purity(%) at day 21 (40° C.) (pH 7.0, day 21, 40° C.): 5.7 ± 0.3%; Purity (%) at day 21 (60° C.) (pH 7.0, day 21, 60° C.): 0%; Purity(%) at day 0 (pH 8.0, day 0): 97.1 ± 0.3%; Purity(%) at day 21 (5° C.) (pH 8.0, day 21, 5° C.): 78.1 ± 0.3%; Purity(%) at day 21 (25° C.) (pH 8.0, day 21, 25° C.): 43.6 ± 0.4%; Purity(%) at day 21 (40° C.) (pH 8.0, day 21, 40° C.): 0%; Purity (%) at day 21 (60° C.) (pH 8.0, day 21, 60° C.): 0%
